Assay results reported in patent US7919493B2, “Anititumoral ecteinascidin derivatives” (Pharma Mar, S.A., priority 2001, dated 2011).
In brackets after ≈: the same amount, converted by molar mass.

Tests used:
Format in all cases: cell-based
[1] = tested on: A-549 (monolayer culture of a human lung carcinoma); experiment: Cytotoxic activity screening, A-549 cells; settings: three days of incubation, Crystal Violet, approximate IC50; for IC50: Homo sapiens, A549, 72 h
Experimental: (§1) Cell Cultures. Cells were maintained in logarithmic phase of growth in Eagle's Minimum Essential Medium, with Earle's Balanced Salts, with 2.0 mM L-glutamine, with non-essential amino acids, without sodium bicarbonate (EMEM/neaa); supplemented with 10% Fetal Calf Serum (FCS), 10^−2 M sodium bicarbonate and 0.1 g/l penicillin-G+streptomycin sulfate.
(§2) A separate set of cultures without drug was seeded as control growth to ensure that cells remained in exponential phase of growth. All determinations were carried out in duplicate. After three days of incubation at 37° C., 10% CO2 in a 98% humid atmosphere, the wells were stained with 0.1% Crystal Violet. An approximately IC50 was determined by comparing the growth in wells with drug to the growth in wells control.

[2] = tested on: P-388 (suspension culture of a lymphoid neoplasm from DBA/2 mouse); experiment: Cytotoxic activity screening, P-388 cells; settings: three days of incubation, approximate IC50 vs control growth; for IC50: Mus musculus, P388, 72 h
Experimental: as §1
(§3) A simple screening procedure has been carried out to determine and compare the antitumour activity of these compounds, using an adapted form of the method described by Bergeron et al (1984). The tumour cell line employed have been P-388 (suspension culture of a lymphoid neoplasm from DBA/2 mouse), A-549 (monolayer culture of a human lung carcinoma), HT-29 (monolayer culture of a human colon carcinoma) and MEL-28 (monolayer culture of a human melanoma).
P-388 cell were seeded into 16 mm wells at 1×10^4 cells per well in 1 ml aliquots of MEM 5FCS containing the indicated concentration of drug. A separate set of cultures without drug was seeded as control growth to ensure that cells remained in exponential phase of growth. All determinations were carried out in duplicate.

[3] = tested on: MEL-28 (monolayer culture of a human melanoma); experiment: Cytotoxic activity screening, MEL-28 cells; settings: three days of incubation, Crystal Violet, approximate IC50; for IC50: Homo sapiens, SK-MEL-28, 72 h
Experimental: as §1, §3
as §2, with “A-549, HT-29 and MEL-28 were seeded into 16 mm wells at 2×10^4 cells per well in 1 ml aliquots of MEM 10FCS containing the indicated concentration of drug. A separate” for “A separate”

[4] = tested on: HT-29 (monolayer culture of a human colon carcinoma); experiment: Cytotoxic activity screening, HT-29 cells; settings: three days of incubation, Crystal Violet, approximate IC50; for IC50: Homo sapiens, HT-29, 72 h
Experimental: as §1, §2

DU-145 = experiment: Cytotoxic activity screening, DU-145 cells; settings: for IC50: Homo sapiens, DU-145, DU-145 cells
Experimental: [The source words this procedure for another cell line and reports this cell line under the same test.] as §1, §3
Examples of biological activities of the compounds described in the present application are in Table IV (IC50 (ng/mL)) on the following pages.

Row | Structure (SMILES) | IC50 [1] [ng/mL] | IC50 [2] [ng/mL] | IC50 [3] [ng/mL] | IC50 [4] [ng/mL] | IC50 (DU-145) [ng/mL] | IC50 A-549 [1] | IC50 P-388 [2] | IC50 MEL-28 [3] | IC50 HT-29 [4] | IC50 DU-145 (DU-145; DU-145 cells)
1 | COc1c(C)cc2c(c1O)[C@@H]1C3[C@@H]4SC[C@H](NC(=O)C(F)(F)F)C(=O)OC[C@@H](c5c6c(c(C)c(OC(C)=O)c54)OCO6)N3[C@@H](O)[C@H](C2)N1C (stereo in doubt) [Compound 4b] | 0.5 (≈ 0.705 nM) | 0.5 (≈ 0.705 nM) | 0.5 (≈ 0.705 nM) | 0.5 (≈ 0.705 nM) | 0.5 (≈ 0.705 nM) | – | – | – | – | –
2 | COc1c(C)cc2c(c1O)[C@@H]1C3[C@@H]4SC[C@H](NC(=O)/C=C/c5ccccc5)C(=O)OC[C@@H](c5c6c(c(C)c(OC(C)=O)c54)OCO6)N3[C@@H](O)[C@H](C2)N1C (stereo in doubt) [Compound 4h] | 0.5 (≈ 0.672 nM) | 0.5 (≈ 0.672 nM) | 0.5 (≈ 0.672 nM) | 0.5 (≈ 0.672 nM) | 0.5 (≈ 0.672 nM) | – | – | – | – | –
3 | COc1c(C)cc2c(c1O)[C@@H]1C3[C@@H]4SC[C@@H](NC(C)=O)C(=O)OC[C@@H](c5c6c(c(C)c(OC(C)=O)c54)OCO6)N3[C@@H](C#N)[C@H](C2)N1C (some centres unmarked) [Compound 3a] | 0.5 (≈ 0.752 nM) | 0.5 (≈ 0.752 nM) | 0.5 (≈ 0.752 nM) | 0.5 (≈ 0.752 nM) | 0.5 (≈ 0.752 nM) | – | – | – | – | –
4 | COc1c(C)cc2c(c1O)[C@@H]1C3[C@@H]4SC[C@H](NC(=O)C(F)(F)F)C(=O)OC[C@@H](c5c6c(c(C)c(OC(C)=O)c54)OCO6)N3[C@@H](C#N)[C@H](C2)N1C (some centres unmarked) [Compound 3b] | 1 (≈ 1.39 nM) | 1 (≈ 1.39 nM) | 1 (≈ 1.39 nM) | 1 (≈ 1.39 nM) | 1 (≈ 1.39 nM) | – | – | – | – | –
5 | CCCC(=O)N[C@H]1CS[C@@H]2c3c(OC(C)=O)c(C)c4c(c3[C@H](COC1=O)N1C2[C@H]2c3c(cc(C)c(OC)c3O)C[C@@H]([C@@H]1C#N)N2C)OCO4 (some centres unmarked) [Compound 3c] | 0.1 (≈ 0.144 nM) | 0.1 (≈ 0.144 nM) | 0.1 (≈ 0.144 nM) | 0.1 (≈ 0.144 nM) | 0.1 (≈ 0.144 nM) | – | – | – | – | –
6 | COc1c(C)cc2c(c1O)[C@@H]1C3[C@@H]4SC[C@H](NC(=O)CC(C)C)C(=O)OC[C@@H](c5c6c(c(C)c(OC(C)=O)c54)OCO6)N3[C@@H](C#N)[C@H](C2)N1C (some centres unmarked) [Compound 3d] | 0.1 (≈ 0.141 nM) | 0.1 (≈ 0.141 nM) | 0.1 (≈ 0.141 nM) | 0.1 (≈ 0.141 nM) | 0.1 (≈ 0.141 nM) | – | – | – | – | –
7 | CCCCCCCC(=O)N[C@H]1CS[C@@H]2c3c(OC(C)=O)c(C)c4c(c3[C@H](COC1=O)N1C2[C@H]2c3c(cc(C)c(OC)c3O)C[C@@H]([C@@H]1C#N)N2C)OCO4 (some centres unmarked) [Compound 3e] | 1 (≈ 1.34 nM) | 1 (≈ 1.34 nM) | 1 (≈ 1.34 nM) | 1 (≈ 1.34 nM) | 1 (≈ 1.34 nM) | – | – | – | – | –
8 | CCCCCCCCCCCCCCCC(=O)N[C@H]1CS[C@@H]2c3c(OC(C)=O)c(C)c4c(c3[C@H](COC1=O)N1C2[C@H]2c3c(cc(C)c(OC)c3O)C[C@@H]([C@@H]1C#N)N2C)OCO4 (some centres unmarked) [Compound 3f] | – | – | – | – | – | >1-10^3 ng/mL | >1-10^3 ng/mL | >1-10^3 ng/mL | >1-10^3 ng/mL | >1-10^3 ng/mL
9 | COc1c(C)cc2c(c1O)[C@@H]1C3[C@@H]4SC[C@H](NC(=O)c5ccccc5)C(=O)OC[C@@H](c5c6c(c(C)c(OC(C)=O)c54)OCO6)N3[C@@H](C#N)[C@H](C2)N1C (some centres unmarked) [Compound 3g] | 0.1 (≈ 0.138 nM) | 0.1 (≈ 0.138 nM) | 0.1 (≈ 0.138 nM) | 0.1 (≈ 0.138 nM) | 0.1 (≈ 0.138 nM) | – | – | – | – | –
10 | COc1c(C)cc2c(c1O)[C@@H]1C3[C@@H]4SC[C@H](NC(=O)/C=C/c5ccccc5)C(=O)OC[C@@H](c5c6c(c(C)c(OC(C)=O)c54)OCO6)N3[C@@H](C#N)[C@H](C2)N1C (some centres unmarked) [Compound 3h] | 0.5 (≈ 0.664 nM) | 0.5 (≈ 0.664 nM) | 0.5 (≈ 0.664 nM) | 0.5 (≈ 0.664 nM) | 0.5 (≈ 0.664 nM) | – | – | – | – | –
11 | COc1c(C)cc2c(c1O)[C@@H]1C3[C@@H]4SC[C@H](NC(=O)/C=C/c5ccc(C(F)(F)F)cc5)C(=O)OC[C@@H](c5c6c(c(C)c(OC(C)=O)c54)OCO6)N3[C@@H](C#N)[C@H](C2)N1C (some centres unmarked) [Compound 3i] | 5 (≈ 6.09 nM) | 5 (≈ 6.09 nM) | 5 (≈ 6.09 nM) | 5 (≈ 6.09 nM) | 5 (≈ 6.09 nM) | – | – | – | – | –
12 | COc1c(C)cc2c(c1O)[C@@H]1C3[C@@H]4SC[C@H](N5C(=O)c6ccccc6C5=O)C(=O)OC[C@@H](c5c6c(c(C)c(OC(C)=O)c54)OCO6)N3[C@@H](C#N)[C@H](C2)N1C (some centres unmarked) [Compound 3j] | 5 (≈ 6.64 nM) | 5 (≈ 6.64 nM) | 5 (≈ 6.64 nM) | 5 (≈ 6.64 nM) | 5 (≈ 6.64 nM) | – | – | – | – | –
13 | COc1c(C)cc2c(c1O)[C@@H]1C3[C@@H]4SC[C@H](NC(=O)CCCCC5SCC6NC(=O)NC65)C(=O)OC[C@@H](c5c6c(c(C)c(OC(C)=O)c54)OCO6)N3[C@@H](C#N)[C@H](C2)N1C (some centres unmarked) [Compound 3k] | 10 (≈ 11.8 nM) | 10 (≈ 11.8 nM) | 5 (≈ 5.89 nM) | 5 (≈ 5.89 nM) | 5 (≈ 5.89 nM) | – | – | – | – | –
